# Measured values reported in PubChem BioAssay AID1259407 (Chemical Carcinogenesis Research Information System (CCRIS), 2018).
# The source made the active and inactive calls. No rule for the calls is given here.
# Test system: CCRIS mutagenicity, Ames/micronucleus/aberration tests
# Experiment: CCRIS mutagenicity studies
# [1] = Test System: AMES SALMONELLA TYPHIMURIUM, Strain/Indicator: TA98, Metabolic Activation: NONE, Method: STANDARD PLATE
# [2] = Test System: AMES SALMONELLA TYPHIMURIUM, Strain/Indicator: TA98, Metabolic Activation: RAT, LIVER, S-9, AROCLOR 1254, Method: STANDARD PLATE
# [3] = Test System: AMES SALMONELLA TYPHIMURIUM, Strain/Indicator: TA100, Metabolic Activation: NONE, Method: STANDARD PLATE
# [4] = Test System: AMES SALMONELLA TYPHIMURIUM, Strain/Indicator: TA100, Metabolic Activation: RAT, LIVER, S-9, AROCLOR 1254, Method: STANDARD PLATE
smiles,measurement,setting,value
O=C1NC(=O)C(c2ccccc2)(c2ccccc2)N1,mutagenic call,"End Point: IN VITRO CHROMOSOMAL ABERRATIONS, Test System: CHINESE HAMSTER OVARY CELLS, Metabolic Activation: NONE",inactive; negative
same,mutagenic call,"End Point: IN VITRO CHROMOSOMAL ABERRATIONS, Test System: CHINESE HAMSTER OVARY CELLS, Metabolic Activation: RAT, LIVER, S-9, AROCLOR 1254",inactive; negative
same,mutagenic call,"End Point: IN VIVO MICRONUCLEUS, Test System: BONE MARROW POLYCHROMATIC ERYTHROCYTES, Species: MOUSE, Strain/Sex: CD-1/MALE, FEMALE, Route: IP",inactive; negative
same,mutagenic call,"End Point: IN VIVO MICRONUCLEUS, Test System: FETAL LIVER POLYCHROMATIC ERYTHROCYTES (MALES AND FEMALES), Species: MOUSE, Strain/Sex: FEMALE (PREGNANT), Route: IP",inactive; negative
same,mutagenic call,"Test System: AMES SALMONELLA TYPHIMURIUM, Strain/Indicator: TA97, Metabolic Activation: NONE, Method: STANDARD PLATE",inactive; negative
same,mutagenic call,"Test System: AMES SALMONELLA TYPHIMURIUM, Strain/Indicator: TA97, Metabolic Activation: RAT, LIVER, S-9, 3-METHYLCHOLANTHRENE, Method: PREINCUBATION (10, 20 OR 30 MIN)",inactive; negative
same,mutagenic call,"Test System: AMES SALMONELLA TYPHIMURIUM, Strain/Indicator: TA97, Metabolic Activation: RAT, LIVER, S-9, AROCLOR 1254 (50 OR 100 UG), Method: STANDARD PLATE",inactive; negative
same,mutagenic call,"Test System: AMES SALMONELLA TYPHIMURIUM, Strain/Indicator: TA97, Metabolic Activation: RAT, LIVER, S-9, AROCLOR 1254, Method: PREINCUBATION (10, 20 OR 30 MIN)",inactive; negative
same,mutagenic call,"Test System: AMES SALMONELLA TYPHIMURIUM, Strain/Indicator: TA97, Metabolic Activation: RAT, LIVER, S-9, AROCLOR 1254, Method: STANDARD PLATE",inactive; negative
same,mutagenic call,"Test System: AMES SALMONELLA TYPHIMURIUM, Strain/Indicator: TA97, Metabolic Activation: RAT, LIVER, S-9, PHENOBARBITONE, Method: PREINCUBATION (10, 20 OR 30 MIN)",inactive; negative
same,mutagenic call,"Test System: AMES SALMONELLA TYPHIMURIUM, Strain/Indicator: TA98, Metabolic Activation: HAMSTER, LIVER, S-9, AROCLOR 1254 (10%), Method: PREINCUBATION",inactive; negative
same,mutagenic call,"Test System: AMES SALMONELLA TYPHIMURIUM, Strain/Indicator: TA98, Metabolic Activation: NONE, Method: PREINCUBATION",inactive; negative
same,mutagenic call,[1],inactive; negative
same,mutagenic call,"Test System: AMES SALMONELLA TYPHIMURIUM, Strain/Indicator: TA98, Metabolic Activation: RAT, LIVER, S-9, 3-METHYLCHOLANTHRENE, Method: STANDARD PLATE",inactive; negative
same,mutagenic call,"Test System: AMES SALMONELLA TYPHIMURIUM, Strain/Indicator: TA98, Metabolic Activation: RAT, LIVER, S-9, AROCLOR 1254 (10%), Method: PREINCUBATION",inactive; negative
same,mutagenic call,"Test System: AMES SALMONELLA TYPHIMURIUM, Strain/Indicator: TA98, Metabolic Activation: RAT, LIVER, S-9, AROCLOR 1254 (50 OR 100 UG), Method: STANDARD PLATE",inactive; negative
same,mutagenic call,"Test System: AMES SALMONELLA TYPHIMURIUM, Strain/Indicator: TA98, Metabolic Activation: RAT, LIVER, S-9, AROCLOR 1254, Method: PREINCUBATION (10, 20 OR 30 MIN)",inactive; negative
same,mutagenic call,[2],inactive; negative
same,mutagenic call,"Test System: AMES SALMONELLA TYPHIMURIUM, Strain/Indicator: TA98, Metabolic Activation: RAT, LIVER, S-9, PHENOBARBITONE, Method: STANDARD PLATE",inactive; negative
same,mutagenic call,"Test System: AMES SALMONELLA TYPHIMURIUM, Strain/Indicator: TA100, Metabolic Activation: HAMSTER, LIVER, S-9, AROCLOR 1254 (10%), Method: PREINCUBATION",inactive; negative
same,mutagenic call,"Test System: AMES SALMONELLA TYPHIMURIUM, Strain/Indicator: TA100, Metabolic Activation: NONE, Method: PREINCUBATION",inactive; negative
same,mutagenic call,[3],inactive; negative
same,mutagenic call,"Test System: AMES SALMONELLA TYPHIMURIUM, Strain/Indicator: TA100, Metabolic Activation: RAT, LIVER, S-9, AROCLOR 1254 (10%), Method: PREINCUBATION",inactive; negative
same,mutagenic call,"Test System: AMES SALMONELLA TYPHIMURIUM, Strain/Indicator: TA100, Metabolic Activation: RAT, LIVER, S-9, AROCLOR 1254 (50 OR 100 UG), Method: STANDARD PLATE",inactive; negative
same,mutagenic call,[4],inactive; negative
same,mutagenic call,"Test System: AMES SALMONELLA TYPHIMURIUM, Strain/Indicator: TA1530, Metabolic Activation: NONE, Method: STANDARD PLATE",inactive; negative
same,mutagenic call,"Test System: AMES SALMONELLA TYPHIMURIUM, Strain/Indicator: TA1530, Metabolic Activation: RAT, LIVER, S-9, AROCLOR 1254 (50 OR 100 UG), Method: STANDARD PLATE",inactive; negative
same,mutagenic call,"Test System: AMES SALMONELLA TYPHIMURIUM, Strain/Indicator: TA1535, Metabolic Activation: HAMSTER, LIVER, S-9, AROCLOR 1254 (10%), Method: PREINCUBATION",inactive; negative
same,mutagenic call,"Test System: AMES SALMONELLA TYPHIMURIUM, Strain/Indicator: TA1535, Metabolic Activation: NONE, Method: PREINCUBATION",inactive; negative
same,mutagenic call,"Test System: AMES SALMONELLA TYPHIMURIUM, Strain/Indicator: TA1535, Metabolic Activation: RAT, LIVER, S-9, AROCLOR 1254 (10%), Method: PREINCUBATION",inactive; negative
same,mutagenic call,"Test System: AMES SALMONELLA TYPHIMURIUM, Strain/Indicator: TA1537, Metabolic Activation: HAMSTER, LIVER, S-9, AROCLOR 1254 (10%), Method: PREINCUBATION",inactive; negative
same,mutagenic call,"Test System: AMES SALMONELLA TYPHIMURIUM, Strain/Indicator: TA1537, Metabolic Activation: NONE, Method: PREINCUBATION",inactive; negative
same,mutagenic call,"Test System: AMES SALMONELLA TYPHIMURIUM, Strain/Indicator: TA1537, Metabolic Activation: NONE, Method: STANDARD PLATE",inactive; negative
same,mutagenic call,"Test System: AMES SALMONELLA TYPHIMURIUM, Strain/Indicator: TA1537, Metabolic Activation: RAT, LIVER, S-9, AROCLOR 1254 (10%), Method: PREINCUBATION",inactive; negative
same,mutagenic call,"Test System: AMES SALMONELLA TYPHIMURIUM, Strain/Indicator: TA1537, Metabolic Activation: RAT, LIVER, S-9, AROCLOR 1254 (50 OR 100 UG), Method: STANDARD PLATE",inactive; negative
same,mutagenic call,"Test System: AMES SALMONELLA TYPHIMURIUM, Strain/Indicator: TA1538, Metabolic Activation: NONE, Method: STANDARD PLATE",inactive; negative
same,mutagenic call,"Test System: AMES SALMONELLA TYPHIMURIUM, Strain/Indicator: TA1538, Metabolic Activation: RAT, LIVER, S-9, 3-METHYLCHOLANTHRENE, Method: STANDARD PLATE",inactive; negative
same,mutagenic call,"Test System: AMES SALMONELLA TYPHIMURIUM, Strain/Indicator: TA1538, Metabolic Activation: RAT, LIVER, S-9, AROCLOR 1254 (50 OR 100 UG), Method: STANDARD PLATE",inactive; negative
same,mutagenic call,"Test System: AMES SALMONELLA TYPHIMURIUM, Strain/Indicator: TA1538, Metabolic Activation: RAT, LIVER, S-9, AROCLOR 1254, Method: PREINCUBATION (10, 20 OR 30 MIN)",inactive; negative
same,mutagenic call,"Test System: AMES SALMONELLA TYPHIMURIUM, Strain/Indicator: TA1538, Metabolic Activation: RAT, LIVER, S-9, AROCLOR 1254, Method: STANDARD PLATE",inactive; negative
same,mutagenic call,"Test System: AMES SALMONELLA TYPHIMURIUM, Strain/Indicator: TA1538, Metabolic Activation: RAT, LIVER, S-9, PHENOBARBITONE, Method: STANDARD PLATE",inactive; negative
same,mutagenic call,"Test System: CHINESE HAMSTER OVARY, Strain/Indicator: CHO-K1-BH4 (HGPRT)/6-THIOGUANINE, Metabolic Activation: NONE, Method: SUSPENSION/PLATE",inactive; negative
same,mutagenic call,"Test System: CHINESE HAMSTER OVARY, Strain/Indicator: CHO-K1-BH4 (HGPRT)/6-THIOGUANINE, Metabolic Activation: S-9, Method: SUSPENSION/PLATE",inactive; negative
same,mutagenic call,"Test System: MOUSE LYMPHOMA, Strain/Indicator: L5178Y (TK+/TK-), Metabolic Activation: NONE, Method: SUSPENSION/PLATE",inactive; negative
same,mutagenic call,"Test System: MOUSE LYMPHOMA, Strain/Indicator: L5178Y (TK+/TK-), Metabolic Activation: RAT, LIVER, S-9, AROCLOR 1254, Method: SUSPENSION/PLATE",inactive; negative
same,mutagenic call,"Test System: MOUSE LYMPHOMA, Strain/Indicator: L5178Y (TK+/TK-), Metabolic Activation: S-9, Method: SUSPENSION/PLATE",inactive; negative
CC(=O)N(O)c1ccc(Cl)cc1,mutagenic call,[1],inactive; negative
same,mutagenic call,[2],inactive; negative
same,mutagenic call,[3],inactive; negative
same,mutagenic call,[4],inactive; negative
CCC1(O)C(=O)OCc2c1cc1n(c2=O)Cc2cc3c(N)cccc3nc2-1 (configuration not stated),mutagenic call,"Test System: Mouse lymphoma, Strain/Indicator: L5178Y (tk+/tk-), Metabolic Activation: None, Method: Suspension/plate",active; positive
same,mutagenic call,"Test System: Mouse lymphoma, Strain/Indicator: L5178Y (tk+/tk-), Metabolic Activation: Rat, Liver, S-9, Aroclor 1254, Method: Suspension/plate",active; positive
